ChEMBL document CHEMBL1201862, “PubChem BioAssay data set” (2004)
Calls of active or inactive are those of the source.

Legend:
[1] = HEK293 cell cytotoxicity, dose response, cytotoxicity control, plate reader, cherry-picked samples (AID 743446); assay type: functional, cell-based
[2] = cytotoxicity in OVCAR8 ovarian cancer cells, dose response, PAX8 project, cell-based, plate reader, dry powder samples (AID 743197); assay type: functional; settings: OVCAR-8
[3] = A549 cell cytotoxicity, dose response, cytotoxicity control, plate reader, cherry-pick, antagonist series (AID 743412); assay type: functional, cell-based
[4] = NIH:OVCAR-3 ovarian cancer cell cytotoxicity, dose response, PAX8 inhibitor project, plate reader, dry powder samples (AID 743044); assay type: functional, cell-based
[5] = IGROV1 ovarian cancer cell cytotoxicity, dose response, PAX8 inhibitor project, plate reader, dry powder samples (AID 743043); assay type: functional, cell-based; settings: IGROV-1
Paired box protein Pax-8 = Paired box protein Pax-8 (Homo sapiens, UniProt Q06710); experiment: inhibitors of PAX8-driven TPO luciferase reporter, dose response, RMG-I cells, cherry-pick (AID 687027); assay type: functional, cell-based;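 also: luciferase reporter driven by Pax8 target thyroperoxidase promoter measured by SteadyGlo luminescence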
Sequence of Paired box protein Pax-8 (Q06710 whole entry): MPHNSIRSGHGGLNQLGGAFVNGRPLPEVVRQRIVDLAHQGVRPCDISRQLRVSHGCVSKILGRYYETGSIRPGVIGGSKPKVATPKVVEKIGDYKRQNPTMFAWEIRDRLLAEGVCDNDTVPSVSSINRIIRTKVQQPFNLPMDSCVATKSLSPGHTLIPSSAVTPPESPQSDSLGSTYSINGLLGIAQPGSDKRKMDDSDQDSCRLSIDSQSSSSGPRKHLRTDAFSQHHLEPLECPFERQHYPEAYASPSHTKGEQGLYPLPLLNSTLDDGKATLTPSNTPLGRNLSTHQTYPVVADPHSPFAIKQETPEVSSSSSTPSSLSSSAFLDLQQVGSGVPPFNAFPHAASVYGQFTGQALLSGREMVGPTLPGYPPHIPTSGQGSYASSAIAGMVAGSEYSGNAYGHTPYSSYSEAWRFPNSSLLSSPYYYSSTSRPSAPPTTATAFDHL

[6] = HepG2 cell cytotoxicity, dose response, cytotoxicity control, plate reader, cherry-pick, antagonist series (AID 743416); assay type: functional, cell-based
[7] = LGR2 antagonists, dose response, cell-based, HEK293, CRE-luciferase reporter, cherry pick, set 2 (AID 743343); assay type: functional;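 also: transfected cells were stimulated with diluted bursicon conditioned medium after compound addition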
[8] = MC4R antagonists, dose response, counter-screen for LGR2 antagonist project, cell-based, plate reader, cherry pick (AID 743444); assay type: functional;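 also: transfected HEK 293 cells stimulated with alpha-MSH peptide; potency of inhibitors of the alpha-MSH evoked signal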
[9] = P. falciparum Dd2 growth inhibitors, dose response, SYBR Green, cherry-picked samples (AID 1159567); assay type: functional, cell-based
[10] = IOSE-T80 ovarian epithelial cell cytotoxicity, dose response, cytotoxicity control for PAX8 inhibitor project, plate reader, dry powder samples (AID 743045); assay type: functional, cell-based
[11] = T. cruzi growth inhibition in host cells, dose response, cell-based, plate reader, dry powder, set 2 (AID 652275); assay type: functional
[12] = T. cruzi intracellular amastigote growth inhibition, dose response, imaging, CA-I/72 strain, bovine embryo skeletal muscle, dry powder (AID 651885); assay type: functional, cell-based
[13] = NIH/3T3 fibroblast cytotoxicity, dose response, cytotoxicity control, cell-based, plate reader, dry powder, set 2 (AID 652280); assay type: functional; settings: NIH3T3
[14] = HepG2 cell cytotoxicity, dose response, cytotoxicity control, cherry-picked samples (AID 1159577); assay type: functional, cell-based
[15] = A549 cell cytotoxicity, dose response, cytotoxicity control, cherry-picks, 26 µM top dose (AID 1053119); assay type: functional, cell-based
[16] = HEK293 cell cytotoxicity, dose response, cytotoxicity control, cherry-picks, set 5 (AID 1053117); assay type: functional, cell-based
[17] = inhibitors of fibronectin matrix deposition, dose response, AH1F cells, Alexa488-FN fluorescence, cherry-picks (AID 1035475); assay type: functional, cell-based
[18] = HepG2 cell cytotoxicity, dose response, cytotoxicity control, cherry-picks, set 5 (AID 1053118); assay type: functional, cell-based
[19] = HepG2 cell cytotoxicity, dose response, cytotoxicity control, luminescence plate reader, powder samples, set 2 (AID 651860); assay type: functional, cell-based
[20] = HEK293T cell cytotoxicity, dose response, cytotoxicity control, luminescence plate reader, powder samples, set 4 (AID 651863); assay type: functional, cell-based; settings: HEK293
[21] = inhibitors of non-replicating M. tuberculosis, dose response, luciferase, dry powder (AID 651619); assay type: functional; settings: Mycobacterium tuberculosis
[22] = inhibitors of non-replicating M. tuberculosis, dose response, luciferase, dry powder (AID 651620); assay type: functional; settings: Mycobacterium tuberculosis
[23] = growth inhibition of replicating M. tuberculosis, dose response, counter-screen, dry powder, IC90 (AID 651617); assay type: functional; settings: Mycobacterium tuberculosis
[24] = Late stage assay provider results from the probe development effort to identify inhibitors of the Plasmodium falciparum M18 Aspartyl Aminopeptidase (M18AAP): radiolabel-based cell-based dose response assay to identify compounds that inhibit P. falciparum growth in RBCs, Set 2..; assay type: functional
Protein RecA = molecular target: T1, Protein RecA (Mycobacterium tuberculosis, UniProt P9WHJ3); experiment: Fluorescence Cell-Free Homogeneous Dose Retest to Identify Inhibitors of RecA-Intein Splicing Activity. [Related pubchem assays (depositor defined):AID2097, AID2223, AID489010, AID492950]; assay type: functional
T1 sequence (P9WHJ3 whole entry): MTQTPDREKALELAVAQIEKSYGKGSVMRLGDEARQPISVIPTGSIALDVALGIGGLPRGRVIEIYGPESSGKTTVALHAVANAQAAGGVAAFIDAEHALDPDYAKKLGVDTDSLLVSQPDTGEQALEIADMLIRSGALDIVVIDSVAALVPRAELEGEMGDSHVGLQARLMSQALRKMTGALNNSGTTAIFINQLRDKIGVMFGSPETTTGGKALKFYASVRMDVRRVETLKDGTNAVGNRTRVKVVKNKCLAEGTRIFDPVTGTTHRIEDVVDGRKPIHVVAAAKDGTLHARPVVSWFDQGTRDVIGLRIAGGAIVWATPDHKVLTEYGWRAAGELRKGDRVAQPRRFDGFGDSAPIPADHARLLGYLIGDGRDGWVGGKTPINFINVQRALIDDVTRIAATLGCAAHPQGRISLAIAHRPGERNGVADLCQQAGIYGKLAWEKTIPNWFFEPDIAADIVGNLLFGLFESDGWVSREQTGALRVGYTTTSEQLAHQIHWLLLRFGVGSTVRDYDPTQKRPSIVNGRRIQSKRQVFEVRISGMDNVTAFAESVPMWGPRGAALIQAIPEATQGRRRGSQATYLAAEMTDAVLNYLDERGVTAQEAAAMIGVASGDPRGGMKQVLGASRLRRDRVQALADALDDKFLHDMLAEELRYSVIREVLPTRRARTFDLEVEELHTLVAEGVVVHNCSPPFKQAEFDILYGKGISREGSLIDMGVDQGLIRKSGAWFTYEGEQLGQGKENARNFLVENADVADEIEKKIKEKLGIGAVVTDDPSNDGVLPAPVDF

[25] = Shn3 3'UTR reporter inhibitors, dose response, cell-based, Clone20 osteoblasts, firefly luciferase, cherry-picked (AID 624132); assay type: functional;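 also: firefly luciferase luminescence from reporter carrying the Shn3 3'UTR in osteoblasts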
[26] = control 3'UTR Renilla luciferase suppression, dose response, counter-screen for Shn3 inhibitor project, cell-based, Clone20-Shn3RL, cherry-picked (AID 624133); assay type: functional
[27] = molecular target: T2, Replicative DNA helicase DnaB (Mycobacterium tuberculosis, UniProt P9WMR3); experiment: DnaB intein splicing inhibitors, dose response, biochemical, cell-free fluorescence (AID 449749); assay type: functional
T2 sequence (P9WMR3 whole entry): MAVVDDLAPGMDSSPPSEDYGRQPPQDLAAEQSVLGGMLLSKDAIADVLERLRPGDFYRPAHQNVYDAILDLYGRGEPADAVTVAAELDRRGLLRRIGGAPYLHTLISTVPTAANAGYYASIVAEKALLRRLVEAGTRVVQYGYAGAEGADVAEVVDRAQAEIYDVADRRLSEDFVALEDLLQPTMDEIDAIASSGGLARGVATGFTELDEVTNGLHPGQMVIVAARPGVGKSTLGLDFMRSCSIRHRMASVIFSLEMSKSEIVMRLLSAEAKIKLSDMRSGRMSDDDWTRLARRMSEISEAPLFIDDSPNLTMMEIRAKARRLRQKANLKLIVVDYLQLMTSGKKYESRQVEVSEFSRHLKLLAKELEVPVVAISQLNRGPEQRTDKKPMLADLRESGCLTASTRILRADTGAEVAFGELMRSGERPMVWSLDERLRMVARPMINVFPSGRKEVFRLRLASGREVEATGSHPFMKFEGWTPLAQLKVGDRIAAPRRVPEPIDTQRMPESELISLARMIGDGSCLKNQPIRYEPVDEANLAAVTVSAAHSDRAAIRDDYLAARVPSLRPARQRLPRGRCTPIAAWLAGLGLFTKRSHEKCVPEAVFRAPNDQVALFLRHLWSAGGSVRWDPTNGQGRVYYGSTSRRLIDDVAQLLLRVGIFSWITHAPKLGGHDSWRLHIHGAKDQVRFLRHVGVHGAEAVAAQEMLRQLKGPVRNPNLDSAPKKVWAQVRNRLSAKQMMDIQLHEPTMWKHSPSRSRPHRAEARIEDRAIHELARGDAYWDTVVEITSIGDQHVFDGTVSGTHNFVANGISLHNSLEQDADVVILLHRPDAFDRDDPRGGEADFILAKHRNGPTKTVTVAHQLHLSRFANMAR

INS1 = experiment: beta cell apoptosis inhibitors, cytokine rescue, dose response, luminescence, retest (AID 449756); assay type: functional, cell-based; settings: Rattus norvegicus;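 also: cell death triggered by IL-1 beta plus TNF-alpha plus IFN-gamma mixture; protective hits raise ATP signal compared with cytokine alone wells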
[28] = molecular target: COUP transcription factor 2 (Homo sapiens, UniProt P24468); experiment: Luminescence-based cell-based high throughput dose response assay to identify inhibitors of COUP-TFII (NR2F2).; assay type: functional;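 also: HEK293 cells transiently cotransfected with COUP-TFII expression vector and reporter; luciferase reporter luminescence driven by COUP-TFII from the pX2-168 reporter plasmid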
Sequence of COUP transcription factor 2 (P24468 whole entry): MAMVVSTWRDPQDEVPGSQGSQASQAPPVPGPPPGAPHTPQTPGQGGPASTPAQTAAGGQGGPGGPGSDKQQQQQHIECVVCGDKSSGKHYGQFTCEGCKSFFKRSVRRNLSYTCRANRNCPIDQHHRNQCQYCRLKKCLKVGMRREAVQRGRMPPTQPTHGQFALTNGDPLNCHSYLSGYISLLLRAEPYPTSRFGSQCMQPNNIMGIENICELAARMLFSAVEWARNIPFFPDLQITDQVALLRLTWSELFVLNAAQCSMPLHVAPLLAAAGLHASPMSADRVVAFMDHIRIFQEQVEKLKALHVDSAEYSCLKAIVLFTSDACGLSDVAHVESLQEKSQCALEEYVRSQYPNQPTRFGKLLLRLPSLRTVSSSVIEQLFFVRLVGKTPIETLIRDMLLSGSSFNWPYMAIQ

[29] = HepG2 cell cytotoxicity, dose response, cytotoxicity control for Shn3 inhibitor project, CellTiter-Glo, cherry-picked (AID 624134); assay type: functional, cell-based

In the case of `Cn1cnc(S(=O)(=O)N2C[C@@H]3N[C@H](C2)[C@@H]3c2ccc(-c3ccccc3F)cc2)c1`, the AC50 [1] was > 52 µM (inactive), the AC50 [2] was 24.5 µM (active) and the AC50 [3] was 11 µM (active). For the same molecule, the AC50 [4] was 22 µM (active), the AC50 [5] was 27.1 µM (active) and the AC50 (Paired box protein Pax-8) was 4.26 µM (active). For the same molecule, the AC50 [6] was 28.2 µM (active), the AC50 [7] was 18.9 µM (active) and the AC50 [8] was 6.25 µM (active). For the same molecule, the AC50 [9] was 3.72 µM (active) and the AC50 [10] was 25.9 µM (active).
In the case of `C[C@H]1CN([C@@H](C)CO)C(=O)c2cccc(NC(=O)c3ccncc3)c2O[C@@H]1CN(C)Cc1ccc(Cl)c(Cl)c1`, the AC50 [11] was 0.00674 µM (active), the IC50 [12] was 0.00211 µM (active) and the AC50 [13] was 13.2 µM (active).
With `CO[C@H]1CN(C)C(=O)c2ccc(NC(=O)c3ccc(-c4ccccc4)cc3)cc2OC[C@@H](C)NC[C@@H]1C` the AC50 [14] was 7.74 µM (active), the AC50 [15] was 13.4 µM (active) and the AC50 [16] was 16.3 µM (active). The AC50 [17] was > 70 µM (inactive), the AC50 [9] was 2.02 µM (active) and the AC50 [18] was 10.9 µM (active).
With `Cc1ccc(S(=O)(=O)NC2=C/C(=N\[C@@H](C)C(=O)OC(C)(C)C)C(=O)c3ccccc32)c(C)c1` the AC50 [19] was 43 µM (active) and the AC50 [20] was 16.3 µM (active).
In the case of `Fc1ccc(Cn2cc(CSc3nnc(C4CCCC4)o3)nn2)cc1`, the IC90 [21] was 2 µM (active), the IC90 [22] was 2 µM (active) and the IC90 [23] was 250 µM (active).
For `Oc1ccc(CCCNc2c3ccccc3nc3ccccc23)cc1O`, the IC50 [24] was 3.7 µM (active).
With `Cc1cccc(Nc2nc(NCc3ccco3)c3ccccc3n2)c1` the EC50 (Protein RecA) was 9.37 µM (active), the AC50 [25] was 2.05 µM (active) and the AC50 [26] was 3.22 µM (active). The AC50 [27] was 5.65 µM (active), the AC50 (INS1) was 2.09 µM (active) and the IC50 [28] was 8.5 µM (active). The AC50 [29] was 13.1 µM (active).
